Experimental data published in paper PMC10418735, “Lipophilic Studies and In Silico ADME Profiling of Biologically Active 2-Aminothiazol-4(5H)-one Derivatives” (International Journal of Molecular Sciences, 2023).

Legend:
[1] = Lipophilicity by RP-TLC (methanol/water, HPTLC 60RP-18 plates); assay type: physicochemical; conditions: for −S (slope of the regression curve), RP–TLC / RM0: methanol/water, RP-TLC; for RM0: extrapolated to zero methanol concentration, 22 °C; for Φ0 (chromatographic lipophilicity parameter), RP–TLC: Φ0 = −RM0/S
Method: Specifically, 10 × 10 cm plates with silica gel HPTLC 60RP-18 WF254s (Merck, Darmstadt, Niemcy) were used as the stationary phase. Methanol and water for HPLC from POCH (Gliwice, Poland) were used as solvents. Methanol concentration expressed as volume fraction v/v, varied in the range from 0.5 to 0.7 in constant steps of 0.05. Test compounds were dissolved in methanol (2 mg/mL), and then samples (0.01 mL) of each were applied to plates, which were developed in a horizontal DS chamber (Chromdes, Lublin, Poland).
The developing distance was 8 cm. Developed plates were air-dried and observed under 254 nm ultraviolet lamp. All analyzes were performed at 22 °C. Experiments were performed in triplicate with similar results.
For all the compounds, the relative lipophilicity RM values for five methanol–water mobile phases were calculated by the use of the following formula:(4) RM=log[1−RF/RF].
The linear relationship between the RM values and the concentration of methanol in the mobile phase to determine the lipophilicity parameters RM0 is described by the following equation:(5) RM=RM0+SΦ, where Φ —methanol concentration in the mobile phase (volume fraction v/v), and S—the slope of the regression curve.
The quantity Φ0 was calculated from the following equation:(6) Φ0=−RM0/S.

[2] = Lipophilicity by RP-HPLC (methanol/water, RP-18 column); assay type: physicochemical; conditions: for −S (slope of the regression curve), RP–HPLC / log kw: methanol/water, RP-HPLC; for log kw: extrapolated to zero methanol concentration, 25 °C; for Φ0 (chromatographic lipophilicity parameter), RP–HPLC: Φ0 = −log kw/S
Method: The HPLC experiments were performed on the Shimadzu HPLC system (Kyoto, Japan) equipped with solvent delivery pump LC-20AD, UV–VIS detector model SPD-20A, degasser model DGU-20A5, a column oven model CTO-20A, and a column Superspher® 100 RP-18 (4 μm), Merck (Darmstadt, Germany). Methanol and water for HPLC from POCH (Gliwice, Poland) were used as solvents. Mobile phase methanol/water varied in the various ratios. Methanol concentration expressed as volume fraction v/v, varied in the range from 0.55 to 0.95 in constant steps of 0.05. Compounds 1–28 were dissolved in methanol (1 mg/mL). The mobile phase flow rate was 0.7 mL/min. The injection volume was 0.02 mL. All analyzes were performed at 25 °C. Experiments were performed in triplicate with similar results.
The retention coefficient k was calculated from the following relationship:(1) k=tr/tm−1, where tr [min]—retention time, and tm [min]—time for dead volume (measured by use of uracil).
To determine the linear relationship between the values of the log k parameter and the concentration of methanol in the mobile phase, the Soczewiński–Wachtmeister equation was used:(2) logk= log kw+SΦ, where log kw —value extrapolated to zero methanol concentration, Φ —methanol concentration in the mobile phase (volume fraction v/v), and S—the slope of the regression curve.
The parameter Φ0 was calculated from the equation:(3) Φ0=−log kw/S.

Row | SMILES | −S (slope of the regression curve), RP–TLC [1] | RM0 [1] | Φ0 (chromatographic lipophilicity parameter), RP–TLC [1] | −S (slope of the regression curve), RP–HPLC [2] | log kw [2] | Φ0 (chromatographic lipophilicity parameter), RP–HPLC [2]
1 | O=C1N=C(NC23CC4CC(CC(C4)C2)C3)SC12CCC2 [Compound 27] | 3.025 | 2.56 | 0.847 | 4.383 | 3.66 | 0.835
2 | O=C1CSC(NC23CC4CC(CC(C4)C2)C3)=N1 [Compound 28, 2-(Adamantylamino)thiazol-4(5H)-one] | 2.482 | 2.06 | 0.832 | 3.783 | 2.87 | 0.759
